Experimental data taken from patent US9271974B2, “Use of oxycodone for treating visceral pain” (PURDUE PHARMA L.P., priority 2005, dated 2016).

Key:
Type in all cases: in vivo, human
muscular pain = assay: Experimental muscular pain (pressure, electrical stimuli in muscle) in healthy volunteers; conditions: for analgesic effect in muscle versus placebo: oral solution, morphine 30 mg, oxycodone 15 mg, FIG. 1
Excerpt: (§1) The experimental studies referred to below, are based on a comparison of different drugs at healthy volunteers by applying experimental pain, since clinical studies provide insufficient information, partly due to the great difference that exists between patients and partly due to the fact that most diseases produce many symptoms other than pain, which affects the assessment of pain-killing efficacy. Experimental pain can be administered under controlled conditions in healthy volunteers so that this bias can be avoided. However, several experimental stimuli are necessary to simulate the complex clinical situation. It is also necessary to use different opioids to obtain sufficient differentiated knowledge about deep pain on different pain mechanisms, and an assessment of the clinical action spectrum of opioids. For testing the efficacy of different opioids for treating visceral pain a standardized test battery of cutaneous, muscular and visceral stimuli was applied. Blood samples were taken for determination of the opioid concentration in plasma.
In recent years methods by which deep and visceral stimuli can be administered reproducibly have been developed. These methods allow activation of the pain system with different stimuli, with the possibility of activating various types of nerve pathways in the same experiment. In the trial described herein the efficacy of different opioids on different types of stimuli of skin, muscles and bowel in healthy volunteers have been compared. Cutaneous and muscular pain was administered by pressure, current and temperature (skin only). The stimulation of the internal organs was also produced by pressure via a balloon located at the bottom of the oesophagus. The balloon can be distended and produce mechanical stimuli, which feel like mild pain/discomfort. In addition, cold and heat stimuli can be administered by passing water of differing temperature through the balloon. […]

visceral pain [1] = assay: Experimental visceral pain, mechanical stimulation of the oesophagus via balloon distension, in healthy volunteers
Excerpt: as §1
(§2) In recent years methods by which deep and visceral stimuli can be administered reproducibly have been developed. These methods allow activation of the pain system with different stimuli, with the possibility of activating various types of nerve pathways in the same experiment. […]

visceral pain [2] = assay: Experimental visceral pain, heat stimulation of the oesophagus via hot water into the balloon, in healthy volunteers
Excerpt: as §1, §2

cutaneous pain = assay: Experimental cutaneous pain (pressure, electrical, thermal stimuli on skin) in healthy volunteers
Excerpt: as §1, §2

[3] = oral, morphine 30 mg vs oxycodone 15 mg, all modalities tested
[4] = oral oxycodone 15 mg vs morphine 30 mg and placebo, FIG. 2

Structure (SMILES) | analgesic effect in muscle versus placebo (muscular pain) | analgesic effect against mechanical stimulation in viscera (oesophagus), in comparison to placebo (visceral pain [1]; oral morphine 30 mg vs placebo) | analgesic effect against heat pain stimulation in viscera (oesophagus), in comparison to placebo (visceral pain [2]; oral morphine 30 mg vs placebo) | analgesic effect in the skin versus placebo (cutaneous pain; oral solution, morphine 30 mg, oxycodone 15 mg, FIG. 1) | difference in analgesic effect between morphine and oxycodone in the skin (cutaneous pain; [3]) | difference in analgesic effect between morphine and oxycodone in muscle (muscular pain; [3]) | analgesic effect against mechanical stimulation in viscera (oesophagus), in comparison to morphine and placebo (visceral pain [1]; [4]) | analgesia against heat pain stimulation in viscera (oesophagus), in comparison to morphine and placebo (visceral pain [2]; [4])
CN1CC[C@]23c4c5ccc(O)c4O[C@H]2[C@@H](O)C=C[C@H]3[C@H]1C5 [morphine] | significantly more analgesic than placebo | a certain analgesic effect | a certain analgesic effect |  |  |  |  | 
COc1ccc2c3c1O[C@H]1C(=O)CC[C@@]4(O)[C@@H](C2)N(C)CC[C@]314 [oxycodone] | significantly more analgesic than placebo |  |  | significantly more analgesic than placebo | no significant difference between morphine and oxycodone | no significant difference between morphine and oxycodone | significantly better analgesic effect | significantly greater analgesia
